Legend:
[1] = biological target: T1, human GPR10 (Homo sapiens (Human), UniProt P49683); assay: Antagonistic activity on PrRP-induced intracellular calcium mobilization in human GPR10-expressing HEK293 cells; type: cell-based; details: PrRP 1 nM-induced intracellular calcium mobilization, Fluo-8
[2] = biological target: T1, human GPR10; assay: Inhibitory activity on binding of [3H]-PrRP to GPR10 (HEK 293 cell membrane fraction); details: [3H]-PrRP 1 nM, human GPR10-expressing HEK 293 cell membrane fraction; Ki from IC50 by Cheng-Prussoff formula
Summary of the method: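 Competition with [3H]-PrRP (1 nM final) for membranes from human GPR10-expressing HEK293 cells, 90 min at room temperature in HEPES/EDTA buffer pH 7.4; filtration and scintillation counting.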

T1 sequence (P49683 whole entry): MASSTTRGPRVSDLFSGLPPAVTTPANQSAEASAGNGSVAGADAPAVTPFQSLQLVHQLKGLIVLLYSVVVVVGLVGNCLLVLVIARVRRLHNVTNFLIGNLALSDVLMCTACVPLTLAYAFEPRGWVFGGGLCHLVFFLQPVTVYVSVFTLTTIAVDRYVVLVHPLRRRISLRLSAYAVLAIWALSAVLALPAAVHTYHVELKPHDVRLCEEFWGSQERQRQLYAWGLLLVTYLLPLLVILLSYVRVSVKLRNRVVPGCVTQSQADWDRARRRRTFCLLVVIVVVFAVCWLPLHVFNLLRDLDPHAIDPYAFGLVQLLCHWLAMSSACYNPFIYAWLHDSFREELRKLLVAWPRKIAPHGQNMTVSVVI

SMILES	IC50 [1] [µM]	Ki [2] [µM]	melting point [°C]
C[C@H](Nc1nc2c(c(=O)n1N(C)C)CN(C(=O)c1ccc(Cl)cc1)CC2)c1ccc(Cl)cc1.Cl [Example 8, 6-(4-chlorobenzoyl)-2-(S)-[1-(4-chlorophenyl)ethylamino]-3-dimethylamino-5,6,7,8-tetrahydropyrido[4,3-d]pyrimidin-4-(3H)-one hydrochloride]	0.253	0.025	121 to 123
CCC(Nc1nc2c(c(=O)n1OC)CN(C(=O)c1ccc(Cl)cc1)CC2)c1ccc(Cl)cc1.Cl (stereo not drawn) [Example 2421, 6-(4-chlorobenzoyl)-2-[1-(4-chlorophenyl)propylamino]-3-methoxy-5,6,7,8-tetrahydro-3H-pyrido[4,3-d]pyrimidin-4-one hydrochloride]	1.57	0.044	118.1 to 123.7
CC[C@@H](Nc1nc2c(c(=O)n1OC)CN(C(=O)c1ccc(Cl)cc1)CC2)c1ccc(Cl)cc1.Cl	–	–	127 to 129.5
C[C@H](Nc1nc2c(c(=O)n1N(C)C)CN(C(=O)c1ccc(Cl)cc1)CC2)c1ccc(C(F)(F)F)cc1.Cl [Example 6, 6-(4-chlorobenzoyl)-3-dimethylamino-2-(S)-{1-[4-(trifluoromethyl)phenyl]ethylamino}-5,6,7,8-tetrahydropyrido[4,3-d]pyrimidin-4-(3H)-one hydrochloride]	0.187	0.017	116 to 118
CN(C)n1c(NCc2ccc(C(F)(F)F)c(F)c2)nc2c(c1=O)CN(C(=O)c1ccc(Cl)cc1)CC2.Cl	–	–	122 to 124
COn1c(N[C@@H](C)c2ccc(Cl)cc2)nc2c(c1=O)CN(C(=O)c1ccc(Cl)cc1)CC2 [Example 9, 6-(4-chlorobenzoyl)-3-methoxy-2-(S)-[1-(4-chlorophenyl)ethylamino]-5,6,7,8-tetrahydropyrido[4,3-d]pyrimidin-4-(3H)-one]	0.204	0.028	–
COn1c(N[C@@H](C)c2ccc(C(F)(F)F)cc2)nc2c(c1=O)CN(C(=O)COc1ccc(Cl)cc1)CC2 [Example 2389, 6-[2-(4-chlorophenoxy)acetyl]-3-methoxy-2-[(S)-1-(4-trifluoromethylphenyl)ethylamino]-5,6,7,8-tetrahydro-3H-pyrido[4,3-d]pyrimidin-4-one]	0.678	0.008	–

Reference: patent publication US9206173B2, “Heterocyclic compounds for the treatment of stress-related conditions” (OTSUKA PHARMACEUTICAL CO., LTD., priority 2009, dated 2015)
